# Reference: patent US20150238401A1, “PROPYL-PHENYL-ETHER DERIVATIVE, AND MELANOGENESIS INHIBITOR, SKIN-LIGHTENING AGENT, ANTIMICROBIAL AGENT AND COSMETIC CONTAINING SAID PROPYL-PHENYL-ETHER DERIVATIVE” (SEIWA KASEI COMPANY, LIMITED, priority 2012, published 2015)
# What was measured:
# [1] = system: B16 melanoma 4A5 cell; assay: Melanogenesis inhibiting test (theophylline-induced melanine production); assay type: cell-based; details: B16 mouse melanoma 4A5, theophylline 1.0 mmol/L, 3 days culture, N=4; for IC40: B16 melanoma 4A5, 72 h, read-out: Judgment: sample concentration showing the melanogenesis inhibiting ratio of 40% or more
# Description: As a test for a skin-lightening effect, evaluation of the action of B16 melanoma 4A5 cell on theophylline-induced melanine production was carried out on propyl-phenyl-ether derivatives of the present invention, according to the following procedure. (1) B16 mouse melanoma 4A5 strain was sowed onto a 48-well plate at a cell density of 8.0×10^3 cells/well. (2) Culturing was performed for 24 hours with Dulbecco's Modified Eagle's medium (manufactured by SIGMA. Hereinafter, abbreviated as D-MEM) containing 10% fetal bovine serum (manufactured by Nichirei Biosciences Inc.). […] (3) After culturing for 3 days in the co-existence of a sample, the medium was removed using an aspirator. Then, after distilled water was added, cells were broken by an ultrasonic wave. (4) Thereafter, the amount of protein was determined using BCA protein assay kit (manufactured by Thermo Fisher Scientific Inc.), and the produced amount of melanine was measured by an alkali solubilizing method described below. [Alkali Solubilizing Method] To the cell-destructed solution was added sodium hydroxide so as to give a final concentration of 1 mol/L and the mixture was dissolved by heating (60° C., 30 minutes), then, the absorbance at 450 nm was measured using a micro plate reader. The melanine amount was calculated from a calibration curve made using synthetic melanine (SIGMA) as a standard. The melanine amount per unit protein was calculated by dividing the melanine amount by the protein amount. (5) The melanine production suppressing rate was calculated according to the following formula. Melanine production suppressing rate (%)=[1−(A−B)/(C−B)]×100 [wherein, A represents the melanine amount per unit protein (g/g) in adding a sample, B represents the melanine amount per unit protein (g/g) in the normal group, and C represents the melanine amount per unit protein (g/g) in the control group.] In the above, Normal group is a case of theophylline (−; no addition) and sample (−; no addition), and Control group is a case of theophylline (+; addition) and sample (−; no addition). (6) Determination of Skin-Lightening Effect The amount of a sample required for adjusting the melanogenesis inhibiting ratio to 40% or more was measured, and the effect was evaluated by the following criteria based on the measured amount. The measurement was conducted at N=4 (4 wells per sample). The skin-lightening effect is expressed as described below based on the sample concentration showing the melanogenesis inhibiting ratio of 40% or more. The measurement was conducted at N=4.
# [2] = system: Propionibacterium acnes (JCM6415); assay: Anti-acne test (growth in GAM bouillon medium, OD620); assay type: cell-based; details: sample final concentration 0.1%, 37° C., anaerobic, 48 hours
# Description: Propionibacterium acnes (JCM6415: ATCC strain) was transplanted to GAM bouillon medium (manufactured by Nissui Pharmaceutical Co., Ltd.), and cultured at 37° C. under anaerobic condition for 24 hours. Thereafter, it was diluted with GAM bouillon medium so that the final bacterium concentration was OD620=0.1, and this was used as a test bacterium solution. In examples, the propyl-phenyl-ether derivative was weighed so that the final concentration was 0.1%, dissolved in GAM bouillon medium, then, filter-sterilization was performed. The resultant solution was used as a sample solution. The test bacterium solution was added in an amount of 30 μL and the sample solution was added in an amount of 120 μL to a 96-well microplate (manufactured by Sumitomo Bakelite Co., Ltd.), then, immediately, the micro plate and AnaeroPack-KENKI (manufactured by Mitsubishi Gas Chemical Co., Inc.) were placed into an anaerobic jar (manufactured by Mitsubishi Gas Chemical Co., Inc.), and culture was carried out at 37° C. under anaerobic condition for 48 hours. Thereafter, OD620 was measured by a microplate reader. The same test was conducted using methylparaben, phenoxyethanol and sodium ascorbate as comparative compounds.
# The results are classified by the following criteria and shown in Table 5-Table 7. • Δ: OD620 is 0.6 or more • ◯: OD620 is 0.3-0.6 • ⊚: OD620 is 0.3 or less
Structure (SMILES),IC40 [1] [µM],Judgment: OD620 after culture [2],Judgment: sample concentration showing the melanogenesis inhibiting ratio of 40% or more [1]
CCOC(CO)COc1ccc(C(C)(C)C)cc1 (stereo not drawn) [2-O-ethyl-1-hydroxy-3-(4′-tert-butylphenoxy)propyl],≤ 30,⊚⊚,–
"CC(O)COc1ccc(C(C)(C)C)cc1 (stereo not drawn) [Example 2, 2-hydroxy-3-(4′-tert-butylphenoxy)propyl]",30 to 100,⊚ (⊚: OD620 is 0.3 or less),–
"CCOCC(O)COc1ccc(C(C)CC)cc1 (stereo not drawn) [Example 4, 1-O-ethyl-2-hydroxy-3-(4′-sec-butylphenoxy)propyl]",–,⊚ (⊚: OD620 is 0.3 or less),⊚ (30 to 100 μmol/L: ⊚)
"CC(C)(C)c1ccc(OCC(O)COc2ccc(C(C)(C)C)cc2)cc1 [Example 8, 2-hydroxy-1,3-di-(4′-tert-butylphenoxy)propyl]",≤ 30,⊚⊚,–
"CC(C)(C)c1ccc(OCC(O)COc2ccc(O)cc2)cc1 (stereo not drawn) [Example 9, 1-(4″-hydroxyphenoxy)-2-hydroxy-3-(4′-tert-butylphenoxy)propyl]",30 to 100,⊚ (⊚: OD620 is 0.3 or less),–
"CC(C)(C)c1ccc(OCC(O)COCC(O)COc2ccc(C(C)(C)C)cc2)cc1 (stereo not drawn) [Example 10, di[2-hydroxy-3-(4′-tert-butylphenoxy)propyl]ether]",100 to 300,⊚ (⊚: OD620 is 0.3 or less),–
"CCCCc1ccc(OCC(O)CO)cc1 (stereo not drawn) [Example 12, 1,2-di-hydroxy-3-(4′-n-butylphenoxy)propyl]",30 to 100,◯ (◯: OD620 is 0.3-0.6),–
"CC(C)c1ccc(OCC(O)CO)cc1 (stereo not drawn) [Example 13, 1,2-di-hydroxy-3-(4′-isopropylphenoxy)propyl]",30 to 100,⊚ (⊚: OD620 is 0.3 or less),–
"CCc1ccc(OCC(O)CO)cc1 (stereo not drawn) [Example 14, 1,2-di-hydroxy-3-(4′-ethylphenoxy)propyl]",100 to 300,⊚ (⊚: OD620 is 0.3 or less),–
"CCC(C)(C)c1ccc(OCC(O)CO)cc1 (stereo not drawn) [Example 15, 1,2-di-hydroxy-3-(4′-tert-amylphenoxy)propyl]",≤ 30,⊚⊚,–
"CC(C)(c1ccccc1)c1ccc(OCC(O)CO)cc1 (stereo not drawn) [Example 16, 1,2-di-hydroxy-3-(4′-α-cumylphenoxy)propyl]",30 to 100,⊚ (⊚: OD620 is 0.3 or less),–
"CC(C)(C)CC(C)(C)c1ccc(OCC(O)CO)cc1 (stereo not drawn) [Example 17, 1,2-di-hydroxy-3-[4′-(1″,1″,3″,3″-tetramethylbutyl)phenoxy]propyl]",≤ 30,⊚⊚,–
"CC(C)(C)c1ccc(OCCCO)cc1 [Example 18, 1-hydroxy-3-(4′-tert-butylphenoxy)propyl]",30 to 100,⊚ (⊚: OD620 is 0.3 or less),–
"CCC(C)c1cccc(C(C)CC)c1OCC(O)CO (stereo not drawn) [Example 19, 1,2-di-hydroxy-3-(2′,6′-di-sec-butylphenoxy)propyl]",≤ 30,⊚⊚,–
"CC(C)(C)c1ccc(OCC(O)CO)c(C(C)(C)C)c1 (stereo not drawn) [Example 20, 1,2-di-hydroxy-3-(2′,4′-di-tert-butylphenoxy)propyl]",≤ 30,⊚⊚,–
"Cc1cc(OCC(O)CO)c(C(C)(C)C)cc1C(C)(C)C (stereo not drawn) [Example 21, 1,2-di-hydroxy-3-(2′,4′-di-tert-butyl-5′-methylphenoxy)propyl]",≤ 30,⊚⊚,–
"Cc1cc(C(C)(C)C)c(OCC(O)CO)c(C(C)(C)C)c1 (stereo not drawn) [Example 22, 1,2-di-hydroxy-3-(2′,6′-di-tert-butyl-4′-methylphenoxy) propyl]",≤ 30,⊚⊚,–

Structure (SMILES),IC40 [1] [µM],Judgment: OD620 after culture [2],Judgment: sample concentration showing the melanogenesis inhibiting ratio of 40% or more [1]
"COc1ccc(OCC(O)CO)c(C(C)(C)C)c1 (stereo not drawn) [Example 23, 1,2-di-hydroxy-3-(2′-tert-butyl-4′-methoxylphenoxy)propyl]",30 to 100,⊚ (⊚: OD620 is 0.3 or less),–
"COc1ccc(OCC(O)CO)cc1C(C)(C)C (stereo not drawn) [Example 24, 1,2-di-hydroxy-3-(3′-tert-butyl-4′-methoxylphenoxy)propyl]",30 to 100,⊚ (⊚: OD620 is 0.3 or less),–
CC(C)(c1ccc(OCC(O)CO)cc1)c1ccc(OCC(O)CO)cc1 (stereo not drawn) [Example 25],≤ 30,⊚⊚,–
"CCCCC(CC)COCC(O)COc1ccccc1C(C)CC (stereo not drawn) [Example 26, 1-O-(2″-ethylhexyl)-2-hydroxy-3-(2′-sec-butylphenoxy) propyl]",30 to 100,⊚ (⊚: OD620 is 0.3 or less),–
"CCOCC(O)COc1ccccc1C(C)CC (stereo not drawn) [Example 27, 1-O-ethyl-2-hydroxy-3-(2′-sec-butylphenoxy)propyl]",30 to 100,⊚ (⊚: OD620 is 0.3 or less),–
"CCOCC(O)COc1ccc(C(C)(C)c2ccccc2)cc1 (stereo not drawn) [Example 28, 1-O-ethyl-2-hydroxy-3-(4′-α-cumylphenoxy)propyl]",≤ 30,⊚⊚,–
"CCOCC(O)COc1ccc(C(C)C)c(C)c1 (stereo not drawn) [Example 29, 1-O-ethyl-2-hydroxy-3-(3′-methyl-4′-isoproylphenoxy)propyl]",≤ 30,⊚⊚,–
"CCOCC(O)COc1c(C(C)CC)cccc1C(C)CC (stereo not drawn) [Example 30, 1-O-ethyl-2-hydroxy-3-(2′,6′-di-sec-butylphenoxy)propyl]",≤ 30,⊚⊚,–
"Cc1cc(OCC(O)CO)ccc1C(C)C (stereo not drawn) [Example 31, 1,2-di-hydroxy-3-(3′-methyl-4′-isoproylphenoxy)propyl]",≤ 30,⊚⊚,–
"CCOCC(O)COc1ccc(C(C)(C)c2ccc(OCC(O)COCC)cc2)cc1 (stereo not drawn) [Example 32, 2,2-bis[4′-(1″-O-ethyl-2″-hydroxypropoxy)phenyl]propane]",≤ 30,⊚⊚,–
"CCOCC(O)COc1ccc(C(C)(C)CC(C)(C)C)cc1 (stereo not drawn) [Example 33, 1-O-ethyl-2-hydroxy-3-[4′-(1″,1″,3″,3″-tetramethylbutyl)phenoxy]propyl]",30 to 100,⊚ (⊚: OD620 is 0.3 or less),–
"COC(=O)c1ccc(O)cc1 [Methylparaben, reference compound]",–,Δ (Δ: OD620 is 0.6 or more),–
"O=C1O[C@H]([C@@H](O)CO)C([O-])=C1O.[Na+] [Sodium Ascorbate, reference compound]",–,Δ (Δ: OD620 is 0.6 or more),–
"CCCOc1ccc(C(C)(C)C)cc1 [Synthesis Example 1, 1-(4′-tert-butylphenoxy)propyl, reference compound]",≥ 300,Δ (Δ: OD620 is 0.6 or more),–
"CCOc1ccc(C(C)(C)C)cc1 [Synthesis Example 2, 1-(4′-tert-butylphenoxy)ethyl, reference compound]",≥ 300,Δ (Δ: OD620 is 0.6 or more),–
"OCC(O)COc1ccccc1 (stereo not drawn) [Synthesis Example 3, 1,2-di-hydroxy-3-phenoxypropyl, reference compound]",≥ 300,Δ (Δ: OD620 is 0.6 or more),–
"Cc1ccccc1OCC(O)CO (stereo not drawn) [Synthesis Example 4, 1,2-di-hydroxy-3-(2′-methylphenoxy)propyl, reference compound]",≥ 300,Δ (Δ: OD620 is 0.6 or more),–
